Values quoted from earlier work in patent US12502358B1, “Centanafadine multiphasic controlled-release pharmaceutical formulation” (Innovate Therapeutics LLC, priority 2024, dated 2025).

Columns and labels:
[1] = molecular target: serotonin reuptake transporter (SERT) (Homo sapiens, UniProt P31645); settings: fraction of the potency towards NET
[2] = per BCS classification
[3] = molecular target: norepinephrine reuptake transporter (NET) (Homo sapiens, UniProt P23975); settings: rank among NET, DAT, SERT
[4] = molecular target: dopamine reuptake transporter (DAT) (Homo sapiens, UniProt Q01959); settings: fraction of the potency towards NET
Chain of dopamine reuptake transporter (DAT) (Q01959 whole entry, species assumed): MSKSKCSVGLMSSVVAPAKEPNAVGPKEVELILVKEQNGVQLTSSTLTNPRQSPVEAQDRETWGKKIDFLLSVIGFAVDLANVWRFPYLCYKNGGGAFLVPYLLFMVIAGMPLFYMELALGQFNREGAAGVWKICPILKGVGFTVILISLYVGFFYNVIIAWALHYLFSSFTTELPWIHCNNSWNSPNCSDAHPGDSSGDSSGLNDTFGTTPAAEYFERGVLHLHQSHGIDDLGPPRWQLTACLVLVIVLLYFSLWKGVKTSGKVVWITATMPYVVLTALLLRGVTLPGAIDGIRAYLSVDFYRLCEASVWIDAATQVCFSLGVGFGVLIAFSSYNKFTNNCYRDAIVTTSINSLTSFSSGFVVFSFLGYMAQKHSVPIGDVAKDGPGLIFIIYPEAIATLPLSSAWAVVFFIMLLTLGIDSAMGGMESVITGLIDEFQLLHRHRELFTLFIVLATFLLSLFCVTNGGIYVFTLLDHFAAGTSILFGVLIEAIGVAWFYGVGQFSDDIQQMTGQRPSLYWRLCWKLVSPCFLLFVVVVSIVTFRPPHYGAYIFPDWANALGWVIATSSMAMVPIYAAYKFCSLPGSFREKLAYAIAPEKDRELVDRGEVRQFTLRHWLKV

Chain of norepinephrine reuptake transporter (NET) (P23975 whole entry): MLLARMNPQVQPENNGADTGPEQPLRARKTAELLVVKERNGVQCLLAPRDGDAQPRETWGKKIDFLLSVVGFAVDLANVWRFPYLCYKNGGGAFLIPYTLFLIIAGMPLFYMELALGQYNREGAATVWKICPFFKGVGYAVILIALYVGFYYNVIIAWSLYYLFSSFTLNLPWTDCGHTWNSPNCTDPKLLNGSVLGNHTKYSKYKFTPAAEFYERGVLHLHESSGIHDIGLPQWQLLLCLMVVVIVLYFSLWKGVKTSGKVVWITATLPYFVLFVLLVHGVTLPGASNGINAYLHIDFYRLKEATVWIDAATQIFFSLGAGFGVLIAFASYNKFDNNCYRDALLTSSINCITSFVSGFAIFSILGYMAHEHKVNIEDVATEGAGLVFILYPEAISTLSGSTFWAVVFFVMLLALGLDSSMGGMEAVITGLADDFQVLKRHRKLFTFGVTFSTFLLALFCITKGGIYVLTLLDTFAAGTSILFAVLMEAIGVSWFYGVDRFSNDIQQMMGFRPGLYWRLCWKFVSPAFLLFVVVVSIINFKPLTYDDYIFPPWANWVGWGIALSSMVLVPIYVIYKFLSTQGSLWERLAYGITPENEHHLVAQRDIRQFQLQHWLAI
Chain of serotonin reuptake transporter (SERT) (P31645 whole entry, species assumed): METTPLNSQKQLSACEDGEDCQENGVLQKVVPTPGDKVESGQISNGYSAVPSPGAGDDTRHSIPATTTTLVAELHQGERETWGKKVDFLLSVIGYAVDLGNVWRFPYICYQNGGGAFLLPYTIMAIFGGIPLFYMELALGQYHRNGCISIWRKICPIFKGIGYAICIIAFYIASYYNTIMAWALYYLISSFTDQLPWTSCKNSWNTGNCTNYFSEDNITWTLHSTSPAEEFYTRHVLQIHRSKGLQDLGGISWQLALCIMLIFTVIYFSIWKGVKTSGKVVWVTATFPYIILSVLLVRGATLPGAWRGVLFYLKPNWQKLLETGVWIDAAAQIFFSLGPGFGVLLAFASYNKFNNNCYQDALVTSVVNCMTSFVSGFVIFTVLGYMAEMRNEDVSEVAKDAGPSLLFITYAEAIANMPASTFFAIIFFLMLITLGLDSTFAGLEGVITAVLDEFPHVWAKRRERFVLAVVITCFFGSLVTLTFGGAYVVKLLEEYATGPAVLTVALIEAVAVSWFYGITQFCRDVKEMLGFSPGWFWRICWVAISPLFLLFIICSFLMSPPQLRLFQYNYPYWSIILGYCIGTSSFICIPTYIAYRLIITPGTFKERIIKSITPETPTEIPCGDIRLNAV

c1ccc2cc([C@]34CNC[C@H]3C4)ccc2c1 [Centanafadine, (1R,5S)-1-(naphthalen-2-yl)-3-azabicyclo[3.1.0]hexane]
potency towards the serotonin reuptake transporter (SERT) relative to NET [1]: one-fourteenth as much
solubility [2]: highly soluble
potency towards the norepinephrine reuptake transporter (NET) [3]: most potency
potency towards the dopamine reuptake transporter (DAT) relative to NET [4]: one-sixth as much
